Like-named read-outs stand apart in the source and are kept apart here.
Legend:
[1] = test system: members of the family dCache_1PU (11 soluble LBDs); test: Thermal shift ligand screening of all dCache_1PU proteins (Biolog arrays PM3B and PM5); format: binding
R15 (WP_207952809-LBD) [2] = target: T1, R15 (WP_207952809-LBD) (Paenibacillus agricola, UniProt A0ABX0IZG8); test: Microcalorimetric titration (ITC) of the R15 LBD with ligands; format: binding, Paenibacillus sp. S3N08; details: for Binding in microcalorimetric titration, R15 / Kd: 25 °C; for Binding in microcalorimetric titration, R15: pH 7.0; for Kd: pH 7.0, read-out: Dissociation constant, R15; for N value, R15: One binding site model, * = hyperbolic curve
R4 (WP_199478134-LBD) [3] = format: binding, Marinomonas spartinae; details: ITC, 25 °C, pH 8.0; read-out: Dissociation constant, R4
R13 (WP_167859577-LBD) = format: binding, Paenibacillus cymbidii; details: change in Tm, threshold 2 °C; 2 mM ligand (Supplementary Fig. 7)
R11 (WP_162024566-LBD) [4] = test: Microcalorimetric titration (ITC) of the R11 LBD with ligands; format: binding, Lentimonas sp. CC4; details: 25 °C; for Binding in microcalorimetric titration, R11: pH 7.0
R1 (WP_219614703-LBD) [5] = target: T2, R1 (WP_219614703-LBD) (Aeromonas salmonicida, UniProt T0PLV6); test: Microcalorimetric titration (ITC) of the R1 LBD with ligands; format: binding; details: for Kd: read-out: Dissociation constant, R1
R14 (WP_021170906-LBD) [6] = target: T3, R14 (WP_021170906-LBD) (Sporomusa ovata, UniProt A0A0U1L1T7); test: Microcalorimetric titration (ITC) of the R14 LBD with ligands; format: binding; details: for Kd: read-out: Dissociation constant, R14
R5 (WP_131005693-LBD) [7] = test: Thermal shift assay of the R5 LBD; format: binding, Clostridioides difficile; details: change in Tm, threshold 2 °C
R10 (WP_110129388-LBD) = format: binding, Coraliomargarita sinensis; details: change in Tm, threshold 2 °C; for Binding in thermal shift assay, R10 (Supplementary Table 3): cells left empty in Table 3; for Binding in thermal shift assay, R10: 2 mM ligand (Supplementary Fig. 7)
R6 (WP_185834821-LBD) [8] = target: T4, R6 (WP_185834821-LBD) (Vibrio cholerae, UniProt Q9KPY8); test: Thermal shift assay of the R6 LBD; format: binding; details: change in Tm, threshold 2 °C
R8 (WP_227113344-LBD) = R8 (WP_227113344-LBD) (Eggerthella sinensis, UniProt A0ABX9HL97); test: Microcalorimetric titration (ITC) of the R8 LBD with ligands; format: binding
[9] = test system: dCache_1PU domains (11 proteins analyzed); test: Summary of binding data (thermal shift assays and ITC) for the 11 dCache_1PU proteins; details: of the 11 proteins analyzed
R5 (WP_131005693-LBD) [10] = test: Microcalorimetric titration (ITC) of the R5 LBD with ligands; format: binding, Clostridioides difficile; details: 25 °C, pH 7.0
R4 (WP_199478134-LBD) [11] = test: Thermal shift assay of the R4 LBD; format: binding, Marinomonas spartinae; details: change in Tm, threshold 2 °C
R11 (WP_162024566-LBD) [12] = test: Thermal shift assay of the R11 LBD; format: binding, Lentimonas sp. CC4; details: change in Tm, threshold 2 °C
R6 (WP_185834821-LBD) [13] = target: T4, R6 (WP_185834821-LBD); test: biochemical; format: binding
[14] = test system: R6 diguanylate cyclase (VC2224) expressed in P. putida KT2440 pCdrA::gfpC; format: cell-based
R15 (WP_207952809-LBD) [15] = target: T1, R15 (WP_207952809-LBD); test: Thermal shift assay of the R15 LBD; format: binding, Paenibacillus sp. S3N08; details: change in Tm, threshold 2 °C
R14 (WP_021170906-LBD) [16] = target: T3, R14 (WP_021170906-LBD); test: Thermal shift assay of the R14 LBD; format: binding; details: change in Tm, threshold 2 °C
R1 (WP_219614703-LBD) [17] = target: T2, R1 (WP_219614703-LBD); format: binding; details: change in Tm, threshold 2 °C
[18] = ITC, One binding site model, * = hyperbolic curve

T1 sequence (A0ABX0IZG8 entry or part of it): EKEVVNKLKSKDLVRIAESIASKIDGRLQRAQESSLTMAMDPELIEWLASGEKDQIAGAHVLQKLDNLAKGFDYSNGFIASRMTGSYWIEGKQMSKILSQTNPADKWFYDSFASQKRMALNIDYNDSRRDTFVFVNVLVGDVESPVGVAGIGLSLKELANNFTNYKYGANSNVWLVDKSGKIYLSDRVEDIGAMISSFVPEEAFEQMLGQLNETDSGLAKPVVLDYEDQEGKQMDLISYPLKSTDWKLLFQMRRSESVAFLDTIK
T3 sequence (A0A0U1L1T7 entry or part of it): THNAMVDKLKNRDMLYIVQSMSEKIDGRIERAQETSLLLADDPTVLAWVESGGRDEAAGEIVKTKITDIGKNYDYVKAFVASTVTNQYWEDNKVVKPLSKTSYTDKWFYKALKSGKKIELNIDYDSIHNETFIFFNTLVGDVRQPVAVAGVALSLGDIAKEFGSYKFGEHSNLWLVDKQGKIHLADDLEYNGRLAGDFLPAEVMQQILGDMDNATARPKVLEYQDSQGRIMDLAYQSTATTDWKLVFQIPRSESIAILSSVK

Row | Compound | Shift in the thermal shift assays [1] | Binding in microcalorimetric titration, R15 (R15 (WP_207952809-LBD) [2]) | Kd (R4 (WP_199478134-LBD) [3]) [µM] | Binding in thermal shift assay, R13 (R13 (WP_167859577-LBD)) | Binding in microcalorimetric titration, R11 (R11 (WP_162024566-LBD) [4]) | Kd (R1 (WP_219614703-LBD) [5]; ITC, 25 °C, pH 7.0) [µM] | Kd (R14 (WP_021170906-LBD) [6]; ITC, 25 °C) [µM] | N value, R14 (R14 (WP_021170906-LBD) [6]; [18]) | Binding in thermal shift assay, R5 (R5 (WP_131005693-LBD) [7]) | Binding in thermal shift assay, R4 (R4 (WP_199478134-LBD) [11]) | also measured
1 | NCCO [ethanolamine] | did not produce any significant shift |  |  |  |  |  |  |  |  |  | 
2 | Nc1cc[nH]c(=O)n1 [Cytosine] |  | Nb^a | 74 ± 15 | Nts^b (no binding observed in thermal shift assays, i.e., compounds caused changes in the midpoint of protein unfolding (Tm) of less than 2 °C) | Nb^a | 1460 | 105 ± 20 | 0.46 | Nts^b (no binding observed in thermal shift assays, i.e., compounds caused changes in the midpoint of protein unfolding (Tm) of less than 2 °C) |  | N value, R1 (R1 (WP_219614703-LBD) [5]; [18]): 0.21
3 | Nc1ncnc2c1ncn2[C@@H]1O[C@H](CO)[C@@H](O)[C@H]1O [Adenosine] |  | Nb^a | 88 ± 12 | Nts^b (no binding observed in thermal shift assays, i.e., compounds caused changes in the midpoint of protein unfolding (Tm) of less than 2 °C) | Nb^a | 1.1 ± 0.1 | 17 ± 4.1 |  | Nts^b (no binding observed in thermal shift assays, i.e., compounds caused changes in the midpoint of protein unfolding (Tm) of less than 2 °C) |  | Binding in thermal shift assay, R10 (Supplementary Table 3) (R10 (WP_110129388-LBD)): Nts (No binding observed in thermal shift assays, i.e. compounds caused changes in the midpoint of protein unfolding (Tm) of less than 2 ºC); N value, R1 (R1 (WP_219614703-LBD) [5]): 0.13; N value, R14 (R14 (WP_021170906-LBD) [6]): 0.41; Binding in thermal shift assay, R6 (R6 (WP_185834821-LBD) [8]): Nts^b (no binding observed in thermal shift assays, i.e., compounds caused changes in the midpoint of protein unfolding (Tm) of less than 2 °C)
4 | O=c1[nH]c(=O)c2nc[nH]c2[nH]1 [Xanthine] |  |  |  | Nts^b (no binding observed in thermal shift assays, i.e., compounds caused changes in the midpoint of protein unfolding (Tm) of less than 2 °C) | Nb^a |  | 5.1 ± 0.9 | 0.13 |  | Nts^b (no binding observed in thermal shift assays, i.e., compounds caused changes in the midpoint of protein unfolding (Tm) of less than 2 °C) | Kd (R15 (WP_207952809-LBD) [2]): 7.6 ± 1.1 µM; N value, R15 (R15 (WP_207952809-LBD) [2]): 0.05; Binding in thermal shift assay, R10 (R10 (WP_110129388-LBD)): Tsa^c (binding observed in thermal shift assays, i.e., compounds caused changes in Tm of more than 2 °C); N value, R8 (R8 (WP_227113344-LBD); One binding site model, * = hyperbolic curve): 0.15; Binding in microcalorimetric titration, R1 (R1 (WP_219614703-LBD) [5]; ITC, 25 °C, pH 7.0): Nb^a; Proteins that bound / recognized the ligand [9]: 2; Binding in microcalorimetric titration, R5 (R5 (WP_131005693-LBD) [10]): Nb^a; Binding in thermal shift assay, R6 (R6 (WP_185834821-LBD) [8]): Nts^b (no binding observed in thermal shift assays, i.e., compounds caused changes in the midpoint of protein unfolding (Tm) of less than 2 °C)
5 | Nc1nc2c(ncn2[C@@H]2O[C@H](CO)[C@@H](O)[C@H]2O)c(=O)[nH]1 [Guanosine] |  |  |  | Nts^b (no binding observed in thermal shift assays, i.e., compounds caused changes in the midpoint of protein unfolding (Tm) of less than 2 °C) |  | 1.2 ± 0.1 | 25 ± 4.9 | 0.13 | Nts^b (no binding observed in thermal shift assays, i.e., compounds caused changes in the midpoint of protein unfolding (Tm) of less than 2 °C) | Nts^b (no binding observed in thermal shift assays, i.e., compounds caused changes in the midpoint of protein unfolding (Tm) of less than 2 °C) | Kd (R15 (WP_207952809-LBD) [2]): 37 ± 4 µM; N value, R15 (R15 (WP_207952809-LBD) [2]): 0.70; Binding in thermal shift assay, R10 (R10 (WP_110129388-LBD)): Tsa^c (binding observed in thermal shift assays, i.e., compounds caused changes in Tm of more than 2 °C); N value, R1 (R1 (WP_219614703-LBD) [5]; [18]): 0.21; Binding in thermal shift assay, R11 (R11 (WP_162024566-LBD) [12]): Tsa^c (binding observed in thermal shift assays, i.e., compounds caused changes in Tm of more than 2 °C); Kd (R6 (WP_185834821-LBD) [13]): 25 ± 5.2 µM; N value, R6 (R6 (WP_185834821-LBD) [13]; [18]): 0.35; Concentration causing high c-di-GMP levels ([14]; agar plates, wild-type R6 (VC2224)): 1 mM; Concentration at which colonies became wrinkly (onset of the response) ([14]; minimal medium agar plates, 24 h, 30 °C, wild-type R6): 100 µM
6 | NC(=O)CC[C@H](N)C(=O)O [L-Gln] | did not produce any significant shift |  |  |  |  |  |  |  |  |  | 
7 | Cc1c[nH]c(=O)[nH]c1=O [Thymine] |  | Nb^a | 21 ± 0.4 | Nts^b (no binding observed in thermal shift assays, i.e., compounds caused changes in the midpoint of protein unfolding (Tm) of less than 2 °C) |  | 595 ± 47 | 32 ± 8.9 | 0.99 | Nts^b (no binding observed in thermal shift assays, i.e., compounds caused changes in the midpoint of protein unfolding (Tm) of less than 2 °C) |  | Kd (R11 (WP_162024566-LBD) [4]; pH 7.0, 1 mM β-mercaptoethanol, read-out: Dissociation constant, R11): 854 ± 254 µM; N value, R1 (R1 (WP_219614703-LBD) [5]; [18]): 0.20
8 | C[N+](C)(C)CCO [choline] | did not produce any significant shift |  |  |  |  |  |  |  |  |  | 
9 | N[C@@H](Cc1c[nH]c2ccccc12)C(=O)O [L-Trp] | did not produce any significant shift |  |  |  |  |  |  |  |  |  | 
10 | CN [methylamine] | did not produce any significant shift |  |  |  |  |  |  |  |  |  | 
11 | NC(=O)NC1NC(=O)NC1=O (stereo not shown) [Allantoin] |  |  |  | Nts^b (no binding observed in thermal shift assays, i.e., compounds caused changes in the midpoint of protein unfolding (Tm) of less than 2 °C) | Nb^a |  |  |  | Nts^b (no binding observed in thermal shift assays, i.e., compounds caused changes in the midpoint of protein unfolding (Tm) of less than 2 °C) | Nts^b (no binding observed in thermal shift assays, i.e., compounds caused changes in the midpoint of protein unfolding (Tm) of less than 2 °C) | Binding in microcalorimetric titration, R8 (R8 (WP_227113344-LBD); 25 °C, pH 6.0): Nb^a; Binding in thermal shift assay, R15 (R15 (WP_207952809-LBD) [15]): Nts^b (no binding observed in thermal shift assays, i.e., compounds caused changes in the midpoint of protein unfolding (Tm) of less than 2 °C); Binding in microcalorimetric titration, R14 (R14 (WP_021170906-LBD) [6]; ITC, 25 °C): Nb^a
12 | O=c1[nH]c(=O)c2[nH]c(=O)[nH]c2[nH]1 [Uric acid] |  | Nb^a |  | Nts^b (no binding observed in thermal shift assays, i.e., compounds caused changes in the midpoint of protein unfolding (Tm) of less than 2 °C) | Nb^a |  |  |  |  | Nts^b (no binding observed in thermal shift assays, i.e., compounds caused changes in the midpoint of protein unfolding (Tm) of less than 2 °C) | Binding in thermal shift assay, R10 (Supplementary Table 3) (R10 (WP_110129388-LBD)): Nts (No binding observed in thermal shift assays, i.e. compounds caused changes in the midpoint of protein unfolding (Tm) of less than 2 ºC); Binding in thermal shift assay, R14 (R14 (WP_021170906-LBD) [16]): Nts^b (no binding observed in thermal shift assays, i.e., compounds caused changes in the midpoint of protein unfolding (Tm) of less than 2 °C); Binding in microcalorimetric titration, R5 (R5 (WP_131005693-LBD) [10]): Nb^a; Binding in thermal shift assay, R1 (R1 (WP_219614703-LBD) [17]): Nts^b (no binding observed in thermal shift assays, i.e., compounds caused changes in the midpoint of protein unfolding (Tm) of less than 2 °C); Binding in thermal shift assay, R6 (R6 (WP_185834821-LBD) [8]): Nts^b (no binding observed in thermal shift assays, i.e., compounds caused changes in the midpoint of protein unfolding (Tm) of less than 2 °C)
13 | c1ncc2nc[nH]c2n1 [Purine] |  | Nb^a | 2.3 ± 0.3 | Nts^b (no binding observed in thermal shift assays, i.e., compounds caused changes in the midpoint of protein unfolding (Tm) of less than 2 °C) | Nb^a |  | 94 ± 19 | 0.19 |  |  | Binding in microcalorimetric titration, R5 (R5 (WP_131005693-LBD) [10]): Nb^a
